Measured values taken from publication PMC11371739, “Ginkgolic Acid as a carbapenem synergist against KPC-2 positive Klebsiella pneumoniae” (Frontiers in Microbiology, 2024).

Target: T1, KPC-2 (Klebsiella pneumoniae carbapenemase-2) (Klebsiella pneumoniae, UniProt Q9F663)
T1 construct: purified KPC-2 expressed in E. coli BL21(DE3) (pET28a-KPC-2)
Assay: nitrocefin hydrolysis inhibition assay with purified KPC-2; supported by CD, FTIR and site-directed mutagenesis
Format: biochemical

T1 sequence (Q9F663 25-293 limits assumed): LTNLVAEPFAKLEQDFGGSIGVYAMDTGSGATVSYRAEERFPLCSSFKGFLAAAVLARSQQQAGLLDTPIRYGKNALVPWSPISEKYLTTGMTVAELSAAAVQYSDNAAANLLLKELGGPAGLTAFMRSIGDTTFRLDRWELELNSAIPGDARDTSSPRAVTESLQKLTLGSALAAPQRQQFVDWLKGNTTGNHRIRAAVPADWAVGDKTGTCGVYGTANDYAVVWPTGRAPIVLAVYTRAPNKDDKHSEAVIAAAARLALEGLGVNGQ

SMILES: CCCCCCCCCCCCCc1cccc(O)c1C(=O)O [GA, Ginkgolic Acid (C13:0)]
- IC50: 14.8 µM
